Experimental data published in patent US9394338B2, “Glutathione analogs and uses thereof” (REGENTS OF THE UNIVERSITY OF MINNESOTA, priority 2011, dated 2016).

Columns and labels:
Assay type in all cases: in vivo
APP/PS1 mice [1] = assay: Morris water maze; settings: for escape latency, hidden platform: 500 mg/Kg i.p. 3×/week
Protocol: (§1) Efficacy Study Design. To determine the effect of intraperitoneal and oral Ψ-GSH treatment, the study was divided in four groups (10 mice/group). 1. APP/PS1 mice-vehicle control, 2. APP/PS1 mice-Ψ-GSH i.p. 500 mg/kg, 3. APP/PS1 mice-Ψ-GSH oral 500 mg/kg, 4. Non-transgenic wild type mice-vehicle control. All the animals in the above-said groups were treated with saline or Ψ-GSH three times a week for 12 weeks, starting at the age of three to four months. Eleven weeks after the start of the treatment, the animals were tested in the Morris water maze, and twelve weeks after the start of the treatment, the animals were sacrificed for histopathological analysis.
Behavior Study. Eleven weeks after the beginning of the treatment, the animals were tested for one week in an open field water maze. The maze consists of a white circular tank (120 cm diameter) of water (23±1° C.) rendered opaque with nontoxic crayola paint. The mice were placed in the water at the edge of the pool and allowed to swim in order to locate a hidden, but fixed escape platform, using extra-maze cues.
On Day 1, the mice were be placed in the pool and allowed to swim freely for 60 s. If an animal could not locate the hidden platform within that time, it was placed manually upon the platform and left there for 10 s. Each animal was tested in four trials per day. The inter-trial interval was 15 min. Each start position was used equally in a pseudorandom order, and the animals were always placed in the water facing the wall. The platform was placed in the middle of northeast quadrant of the pool (approximately 30 cm from the side of the pool). The mouse's task throughout the experiment was to find and climb onto the platform, escaping the water. Once the mouse learned the task (Day 4, Trial 16), a probe trial was conducted 24 hours after the last trial of acquisition on Day 4.
In the probe trial (i.e., Trial 17, day 5), the platform was removed from the pool and animals were allowed to swim for 60 s. Their ability to remember the location of the previously present escape platform was quantified in proportion to the residence time of the mouse in the quadrant previously containing the platform. Immediately following the probe trial, visible platform was reintroduced at a different location (i.e southeast quadrant) along with a visible flag. Mice were trained to locate this cued platform in 4 trials conducted in the aforementioned manner.

APP/PS1 mice [2] = assay: Amyloid-β1-42 ELISA of brain homogenate
Protocol: as §1
Amyloid-β1-42 ELISA. Total Aβ^1-42 in the brain was quantified by sandwich ELISA (Invitrogen, Carlsbad, Calif.) according to the manufacturer's instructions. Wild type and transgenic Alzheimer's mice brains were Dounce homogenized in phosphate buffered saline (PBS), pH 7.2, containing a mixture of protease inhibitors. Brain homogenates were centrifuged and supernatants were assayed for soluble Aβ^1-42 per manufacturers' protocols. […] The concentration of both PBS soluble and insoluble (guanidine soluble) Aβ^1-42 was calculated from a standard curve of human Aβ^1-42 and was normalized to the weight of the tissue employed.

Swiss Webster Mice = assay: ACP (acetaminophen) overdose rescue and effects on normal liver
Protocol: 36-Male Swiss Webster Mice (HSD) were fasted over-night and then brought to the lab at 8:00 am the following day and weighed. Food was kept out of the cages until after the final drug injection. Mice were divided into treatment groups as below in Table 2.
Thirty minutes post overdose with 370 mg/kg ACP, the following were evaluated for the groups in Table 2:
N-acetylcysteine (NAC) at 7.35 mmol/kg;
Ψ-GSH at three different doses, 3.67, 2.45 and 1.22 mmol/kg; and
examine effects of Ψ-GSH on normal liver at rescue doses.

APP/PS1 mice [3] = assay: Brain lipid peroxidation (TBARS) assay
Protocol: as §1
Lipid Peroxidation Assay. The levels of lipid peroxidation were quantified by the thiobarbituric acid-reactive substances (TBARS) assay. Brain homogenate was treated with 2 ml of (1:1:1) ratio (TBA) thiobarbituric acid -(TCA) trichloroacetic acid -(HCl) chloridic acid reagent (TBA 0.37%, 0.25 N HCL and 15% TCA) and placed in water bath for 15 min, cooled and centrifuged and then clear supernatant was measured at 535 nm against reference blank. Protein was determined by the BCA protein assay kit. TBARS were normalized to the protein content in each sample and then expressed as percentage of the corresponding values in non-transgenic saline controls.

C57BL/6 mice = assay: Short-term toxicity / dose determination study; settings: i.p. 3×/week for two weeks, highest dose 2000 mg/Kg
Protocol: Dose Determination Study: Ψ-GSH was injected intraperitoneally and orally in wild type C57BL/6 mice (6-8 week old, 4/group) three times a week for two weeks. The doses of Ψ-GSH employed ranged from 100 mg/kg to 2000 mg/kg. Body weight (twice a week), complete blood count (CBC) analysis and liver, kidney and lung histology was considered to be indicative of toxicity from the drug treatment. Histological sections of tissue were analyzed by a board-certified pathologist at the Masonic Cancer Center-Comparative Pathology Shared Resource, University of Minnesota.

## N[C@@H](CNC(=O)N[C@@H](CS)C(=O)NCC(=O)O)C(=O)O [Ψ-GSH, γ-Gla-Cys-Gly-OH]
APP/PS1 mice [1]; APP-PS1 mice, day 3 of training
  escape latency, hidden platform: 17.91 ± 4.65 s
APP/PS1 mice [1]; APP-PS1 mice, day 4 of training
  escape latency, hidden platform: 14.64 ± 2.61 s
APP/PS1 mice [1]; APP-PS1 mice, i.p., 24 h after training
  time in the target quadrant, probe trial: 38.43±3.73%
APP/PS1 mice [1]; APP-PS1 mice, i.p., last day of training
  path length: 2.69±0.47 m
APP/PS1 mice [1]; APP-PS1 mice, oral
  Path lengths vs saline-treated controls: insignificantly different
APP/PS1 mice [1]; APP/PS1 mice, i.p., end of four trials
  escape latency, visible platform: 6.75 ± 1.49 s
APP/PS1 mice [1]; APP/PS1 mice, oral
  time in the target quadrant, probe trial: 21.76±5.36%
APP/PS1 mice [1]; APP/PS1 mice, oral 3×/week for 3 months, significant (p<0.05) on day 2 only
  spatial memory development and escape latencies vs saline-treated group: Trends toward higher spatial memory development and lower escape latencies
APP/PS1 mice [2]; i.p.
  insoluble Aβ1-42 in brain: 45.4±6.01 % of vehicle-treated APP/PS1 mice
APP/PS1 mice [2]; oral
  insoluble Aβ1-42 concentration in brain: 90.80±6.72 % of vehicle treated APP/PS1 mice
Swiss Webster Mice; 370 mg/kg ACP + rescue agent
  liver histopathology after ACP overdose: absence of necrotic tissue
Swiss Webster Mice; 370 mg/kg ACP, rescue 30 min later at half molar equivalent of NAC
  ALT levels after ACP overdose: decrease in ALT levels comparable to that caused by NAC
Swiss Webster Mice; mouse, in vivo
  tolerability when given alone: safe and well tolerated
APP/PS1 mice [3]; i.p.
  TBARS levels in brain (WT saline = 100%): 95.3±5.51%
APP/PS1 mice [3]; oral
  levels of lipid peroxidation: unaffected
C57BL/6 mice
  ALT, AST, ALP, blood urea nitrogen (BUN) and creatinine levels: Unaffected
  Body weights and CBC: insignificantly affected
  Histopathology of lung, liver and kidney tissue vs saline-treated mice: no significant difference
